Measurements from patent US10562898B2, “Substituted benzenesulfonamides as inhibitors of alpha-4 beta-7 integrin activity” (EA PHARMA CO., LTD., priority 2016, dated 2020).

Target: T1, α4β7 integrin (Homo sapiens, UniProt P13612+P26010)
T1 construct: a cell line RPMI-8866, which is known to express α4β7 integrin; endogenous in cells; host or cells: RPMI-8866 (human B cell line)
T1 sequence (P13612 34-1032): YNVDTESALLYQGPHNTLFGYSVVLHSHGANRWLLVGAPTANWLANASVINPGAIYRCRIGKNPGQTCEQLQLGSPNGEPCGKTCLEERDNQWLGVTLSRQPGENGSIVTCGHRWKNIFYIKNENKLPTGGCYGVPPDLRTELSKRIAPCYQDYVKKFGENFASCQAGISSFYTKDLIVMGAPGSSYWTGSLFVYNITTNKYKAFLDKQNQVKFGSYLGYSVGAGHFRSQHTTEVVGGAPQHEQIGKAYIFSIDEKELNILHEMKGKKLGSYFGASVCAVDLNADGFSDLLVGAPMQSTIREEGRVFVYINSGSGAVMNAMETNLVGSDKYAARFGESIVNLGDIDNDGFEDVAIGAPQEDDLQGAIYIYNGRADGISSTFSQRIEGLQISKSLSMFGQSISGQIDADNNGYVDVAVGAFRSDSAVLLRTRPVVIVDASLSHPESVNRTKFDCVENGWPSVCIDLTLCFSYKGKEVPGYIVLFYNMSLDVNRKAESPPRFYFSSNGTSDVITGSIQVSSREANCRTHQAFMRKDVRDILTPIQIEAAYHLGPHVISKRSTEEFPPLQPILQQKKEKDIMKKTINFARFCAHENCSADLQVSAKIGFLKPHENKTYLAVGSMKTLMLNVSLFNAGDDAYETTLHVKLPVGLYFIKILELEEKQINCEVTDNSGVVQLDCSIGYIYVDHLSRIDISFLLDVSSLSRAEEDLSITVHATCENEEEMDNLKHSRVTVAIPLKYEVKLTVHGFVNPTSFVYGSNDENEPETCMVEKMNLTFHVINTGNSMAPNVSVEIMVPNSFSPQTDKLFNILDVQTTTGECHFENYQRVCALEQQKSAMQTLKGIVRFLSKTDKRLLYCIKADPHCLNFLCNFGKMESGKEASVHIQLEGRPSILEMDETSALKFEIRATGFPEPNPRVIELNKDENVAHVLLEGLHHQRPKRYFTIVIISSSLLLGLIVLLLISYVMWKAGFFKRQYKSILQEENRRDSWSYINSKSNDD
T1 sequence (P26010 20-798): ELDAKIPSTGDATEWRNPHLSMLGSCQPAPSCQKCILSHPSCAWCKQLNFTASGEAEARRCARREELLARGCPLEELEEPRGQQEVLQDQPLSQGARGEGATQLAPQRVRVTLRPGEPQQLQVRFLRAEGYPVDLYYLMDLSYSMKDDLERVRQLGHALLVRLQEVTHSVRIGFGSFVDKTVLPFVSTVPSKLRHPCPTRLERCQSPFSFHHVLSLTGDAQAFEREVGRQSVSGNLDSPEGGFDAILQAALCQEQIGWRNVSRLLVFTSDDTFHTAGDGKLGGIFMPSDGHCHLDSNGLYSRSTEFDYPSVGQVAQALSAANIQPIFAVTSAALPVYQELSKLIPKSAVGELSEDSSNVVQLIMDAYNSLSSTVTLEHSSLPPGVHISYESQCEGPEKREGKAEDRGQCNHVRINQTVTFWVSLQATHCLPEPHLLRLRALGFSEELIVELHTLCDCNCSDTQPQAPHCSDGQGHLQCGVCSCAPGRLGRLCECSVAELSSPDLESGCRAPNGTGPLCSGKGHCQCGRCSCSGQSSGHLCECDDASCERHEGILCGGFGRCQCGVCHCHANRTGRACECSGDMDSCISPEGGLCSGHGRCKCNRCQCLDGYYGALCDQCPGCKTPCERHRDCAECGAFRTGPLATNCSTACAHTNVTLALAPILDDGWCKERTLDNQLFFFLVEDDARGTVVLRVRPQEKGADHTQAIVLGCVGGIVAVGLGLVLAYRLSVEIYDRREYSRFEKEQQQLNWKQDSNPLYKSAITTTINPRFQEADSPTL
Test: MAdCAM-1/α4β7 integrin binding inhibitory activity evaluation test in presence of serum
Format: cell-based
Conditions: RPMI-8866 cells, recombinant mouse MAdCAM-1/Fc, 50% human serum; read-out: α4β7 Serum Added IC50
Procedure: (3) MAdCAM-1/α4β7 Integrin Binding Inhibitory Activity Evaluation Test in Presence of Serum (1)
Each test substance was measured in terms of an ability to inhibit the MAdCAM-1 binding of a human B cell line, namely, a cell line RPMI-8866, which is known to express α4β7 integrin.
A solution of recombinant mouse MAdCAM-1/Fc (R&D Systems, Inc.) (1 μg/mL) diluted with a buffer A (carbonate buffer, pH 9.6) was added in an amount of 50 μL/well to a 96-well microtiter plate, followed by incubation at 4° C. overnight. After the plate was washed with PBS once, 150 μL/well of Block Ace (Snow Brand Milk Products Co., Ltd.) was added, followed by incubation at room temperature for 2 hours. After removal, the plate was washed with PBS once.
Then, 100 μL of the RPMI-8866 cells (2×10^6 cells/mL) and 100 of the test substance at each of various concentrations diluted with a binding buffer (DMEM containing 40 mM HEPES, 0.2% BSA, and 4 mM MnCl2) were added to the plate coated with the MAdCAM-1/Fc (5×10^5 cells/well) such that 50% human serum was contained at the final concentration. Then, incubation was allowed to proceed at 30° C. for 15 to 60 minutes. After the cells were bound to the wells, the plate was washed with PBS to remove unbound cells. A buffer C (PBS containing 1.5% Triton X-100) was added in an amount 50 μL/well to the plate to lyse the bound RPMI-8866 cells. After 30 μL of a substrate buffer (Promega, CytoTox 96 Non-Radioactive Cytotoxicity Assay) was added to 30 μL of the cell lysate, a reaction was allowed to proceed at room temperature in the dark for 30 minutes. After 30 μL of a stop solution (Promega, CytoTox 96 Non-Radioactive Cytotoxicity Assay) was added to each, and then an absorbance at 490 nm was measured using a plate reader. The absorbance obtained here represents a detection result of an activity of lactate dehydrogenase (LDH) eluted in the supernatant of each well, that is, the absorbance is proportional to the number of RPMI-8866 cells bound to the MAdCAM-1 and thus remaining on the plate. The test was performed in duplicate. Provided that the absorbance of the well containing no test substance was 100%, a cell binding rate with the test substance at each of the various concentrations was figured out, and a concentration IC50 which brought about 50% binding inhibition was calculated.

**Q.** With `Cn1ccc(=O)n(-c2ccc(C[C@H](NC(=O)c3cc(F)c(NS(=O)(=O)c4ccc(NC(=O)C(C)(C)C(F)(F)F)cc4)cc3F)C(=O)O)cn2)c1=O` [Compound A57] as the compound, how does the IC50 read?
**A.** 14 nM

**Q.** With `Cc1cn(C)c(=O)n(-c2ccc(C[C@H](NC(=O)c3cc(F)c(NS(=O)(=O)c4ccc(NC(=O)C(C)(C)C(F)(F)F)cc4)cc3F)C(=O)O)cn2)c1=O` [Compound A58] as the compound, how does the IC50 read?
**A.** 12 nM

**Q.** Which IC50 does the source give for `Cn1ccc(=O)n(-c2ccc(C[C@H](NC(=O)c3cc(F)c(NS(=O)(=O)c4ccc(NC(=O)C5(C#N)CC5)cc4)cc3F)C(=O)O)cn2)c1=O` [Compound A59] here?
**A.** 93 nM

**Q.** Which IC50 does the source give for `Cc1cn(C)c(=O)n(-c2ccc(C[C@H](NC(=O)c3cc(F)c(NS(=O)(=O)c4ccc(NC(=O)C5(C#N)CC5)cc4)cc3F)C(=O)O)cn2)c1=O` [Compound A60] here?
**A.** 52 nM

**Q.** For `CCC(CC)C(=O)Nc1ccc(S(=O)(=O)Nc2cc(F)c(C(=O)N[C@@H](Cc3ccc(-n4c(=O)ccn(C)c4=O)nc3)C(=O)O)cc2F)cc1` [Compound A61], which IC50 is on record?
**A.** 62 nM

**Q.** How did the IC50 turn out when `Cn1ccc(=O)n(-c2ccc(C[C@H](NC(=O)c3cc(F)c(NS(=O)(=O)c4ccc(NC(=O)C(C)(C)CO)cc4)cc3F)C(=O)O)cn2)c1=O` [Compound A62] was run?
**A.** 22 nM

**Q.** With `Cc1cn(C)c(=O)n(-c2ccc(C[C@H](NC(=O)c3cc(F)c(NS(=O)(=O)c4ccc(NC(=O)C(C)(C)CO)cc4)cc3F)C(=O)O)cn2)c1=O` [Compound A63] as the compound, how does the IC50 read?
**A.** 12 nM

**Q.** Which IC50 does the source give for `Cn1ccc(=O)n(-c2ccc(C[C@H](NC(=O)c3cc(F)c(NS(=O)(=O)c4ccc(NC(=O)C5CCCC5)cc4)cc3F)C(=O)O)cn2)c1=O` [Compound A64] here?
**A.** 89 nM

**Q.** Which IC50 does the source give for `Cc1cn(C)c(=O)n(-c2ccc(C[C@H](NC(=O)c3cc(F)c(NS(=O)(=O)c4ccc(NC(=O)C5CCCC5)cc4)cc3F)C(=O)O)cn2)c1=O` [Compound A65] here?
**A.** 50 nM

**Q.** With `Cn1c(C(F)(F)F)cc(=O)n(-c2ccc(C[C@H](NC(=O)c3cc(F)c(NS(=O)(=O)c4ccc(NC(=O)C(C)(C)C)cc4)cc3F)C(=O)O)cn2)c1=O` [Compound A66] as the compound, how does the IC50 read?
**A.** 25 nM

**Q.** With `Cn1cc(C(F)(F)F)c(=O)n(-c2ccc(C[C@H](NC(=O)c3cc(F)c(NS(=O)(=O)c4ccc(NC(=O)C(C)(C)C)cc4)cc3F)C(=O)O)cn2)c1=O` [Compound A67] as the compound, how does the IC50 read?
**A.** 14 nM

**Q.** How did the IC50 turn out when `Cc1cn(C)c(=O)n(-c2ccc(C[C@H](NC(=O)c3cc(F)c(NS(=O)(=O)c4ccc(NC(=O)C#CC(C)(C)C)cc4)cc3F)C(=O)O)cn2)c1=O` [Compound A68] was run?
**A.** 33 nM

**Q.** With `Cc1cn(C)c(=O)n(-c2ccc(C[C@H](NC(=O)c3cc(F)c(NS(=O)(=O)c4ccc(NC(=O)C(C)(C)C)cc4)cc3F)C(=O)O)nc2)c1=O` [Compound A69] as the compound, how does the IC50 read?
**A.** 16 nM

**Q.** Which IC50 does the source give for `Cn1ccc(=O)n(-c2ccc(C[C@H](NC(=O)c3cc(F)c(NS(=O)(=O)c4ccc(NC(=O)C(C)(C)C)cc4)cc3F)C(=O)O)nc2)c1=O` [Compound A70] here?
**A.** 33 nM

**Q.** For `Cc1cn(C)c(=O)n(-c2ccc(C[C@H](NC(=O)c3cc(F)c(NS(=O)(=O)c4ccc(NC(=O)C(C)C)cc4)cc3F)C(=O)O)cn2)c1=O` [Compound A71], which IC50 is on record?
**A.** 43 nM

**Q.** How did the IC50 turn out when `Cc1cc(=O)n(-c2ccc(C[C@H](NC(=O)c3cc(F)c(NS(=O)(=O)c4ccc(NC(=O)C(C)(C)C)cc4)cc3F)C(=O)O)nc2)c(=O)n1C` [Compound A72] was run?
**A.** 28 nM

**Q.** For `Cc1cn(C)c(=O)n(-c2ccc(C[C@H](NC(=O)c3cc(F)c(NS(=O)(=O)c4ccc(NC(=O)C(C)(C)C)s4)cc3F)C(=O)O)cn2)c1=O` [Compound A73], which IC50 is on record?
**A.** 37 nM

**Q.** Which IC50 does the source give for `Cc1cn(C)c(=O)n(-c2ccc(C[C@H](NC(=O)c3cc(F)c(NS(=O)(=O)c4ccc5c(NC(=O)C(C)(C)C)c[nH]c5c4)cc3F)C(=O)O)cn2)c1=O` [Compound A74] here?
**A.** 50 nM

**Q.** How did the IC50 turn out when `CN1CCC(=O)N(c2ccc(C[C@H](NC(=O)c3cc(F)c(NS(=O)(=O)c4ccc(NC(=O)C(C)(C)C)cc4)cc3F)C(=O)O)cn2)C1=O` [Compound A75, (2S)-2-[2,5-difluoro-4-[(4-pivalamidophenyl)sulfonamide]benzamido]-3-[6-(3-methyl-2,6-dioxotetrahydropyrimidin-1(2H)-yl)pyridin-3-yl]propanoic acid] was run?
**A.** 16 nM

**Q.** For `Cc1cn(C)c(=O)n(-c2ccc(C[C@H](NC(=O)c3cc(F)c(NS(=O)(=O)c4cc5cc(NC(=O)C(C)(C)C)ccc5[nH]4)cc3F)C(=O)O)cn2)c1=O` [Compound A76], which IC50 is on record?
**A.** 14 nM

**Q.** With `Cc1cn(C)c(=O)n(-c2ccc(C[C@H](NC(=O)c3cc(F)c(NS(=O)(=O)c4c[nH]c5cc(NC(=O)C(C)(C)C)ccc45)cc3F)C(=O)O)cn2)c1=O` [Compound A77] as the compound, how does the IC50 read?
**A.** 25 nM
